The record followed here is patent EP4729518A1, “CRYSTAL FORM OF METHIONINE ADENOSYLTRANSFERASE 2A HETEROCYCLIC INHIBITOR, PREPARATION METHOD THEREFOR, AND USE THEREOF” (Nanjing Chia Tai Tianqing Pharmaceutical Co., Ltd., priority 2023, dated 2024).

Data set [1] in a line: Heating experiment via DSC followed by XRD. Type of data set: physicochemical. The text has this:
The heated samples were then collected and subjected to XRD analysis. Table 27: Summary of heating test results for various crystal forms
A general note: In DSC, transitions show as peaks or steps in heat flow.

Data set [2] in a line: Solid state stability of crystal forms (XRD and HPLC). Type of data set: physicochemical. The method, then:
Samples of the crystal forms B, H, and L were placed under the conditions of 25 °C/60% RH and 40 °C/75% RH for 17 days, and then the physicochemical stability of the samples was tested using XRD and HPLC. Table 24: Summary of solid state stability evaluation of crystal forms

Each structure is given as a SMILES string.

Regarding `Cn1cc2cc(-c3nn4ccc(C5CC5)nc4c(-c4ccc(OC(F)F)cc4)c3=O)ccc2n1` [Crystal form I, 2-cyclopropyl-9-[4-(difluoromethoxy)phenyl]-7-(2-methyl-2H-indazol-5-yl)-8H-pyrimido[1,2-b]pyridazin-8-one], the “After heating (crystal form)” value in data set [1] (Heating temperature 150 °C) is “Crystal form A”.
For `Cn1cc2cc(-c3nn4ccc(C5CC5)nc4c(-c4ccc(OC(F)F)cc4)c3=O)ccc2n1` [Crystal form P, 2-cyclopropyl-9-[4-(difluoromethoxy)phenyl]-7-(2-methyl-2H-indazol-5-yl)-8H-pyrimido[1,2-b]pyridazin-8-one], the “After heating (crystal form)” value in data set [1] (Heating temperature 150 °C) is “Crystal form A”.
For the compound `Cn1cc2cc(-c3nn4ccc(C5CC5)nc4c(-c4ccc(OC(F)F)cc4)c3=O)ccc2n1` [Crystal form M, 2-cyclopropyl-9-[4-(difluoromethoxy)phenyl]-7-(2-methyl-2H-indazol-5-yl)-8H-pyrimido[1,2-b]pyridazin-8-one], the “After heating (crystal form)” value in data set [1] (Heating temperature 150 °C) is reported as “Crystal form A”.
As to `Cn1cc2cc(-c3nn4ccc(C5CC5)nc4c(-c4ccc(OC(F)F)cc4)c3=O)ccc2n1` [Crystal form A, 2-cyclopropyl-9-[4-(difluoromethoxy)phenyl]-7-(2-methyl-2H-indazol-5-yl)-8H-pyrimido[1,2-b]pyridazin-8-one], the “stability on heating” value in data set [1] (after heating (>100 °C)) is “high-temperature stable crystal form”.
With `Cn1cc2cc(-c3nn4ccc(C5CC5)nc4c(-c4ccc(OC(F)F)cc4)c3=O)ccc2n1` [Crystal form Q, 2-cyclopropyl-9-[4-(difluoromethoxy)phenyl]-7-(2-methyl-2H-indazol-5-yl)-8H-pyrimido[1,2-b]pyridazin-8-one], in data set [1] (Heating temperature 130 °C), the “After heating (crystal form)” value is recorded as “Crystal form A”.
As to `Cn1cc2cc(-c3nn4ccc(C5CC5)nc4c(-c4ccc(OC(F)F)cc4)c3=O)ccc2n1` [Crystal form O, 2-cyclopropyl-9-[4-(difluoromethoxy)phenyl]-7-(2-methyl-2H-indazol-5-yl)-8H-pyrimido[1,2-b]pyridazin-8-one], the “After heating (crystal form)” value in data set [1] (Heating temperature 150 °C) is recorded as “Crystal form A”.
For `Cn1cc2cc(-c3nn4ccc(C5CC5)nc4c(-c4ccc(OC(F)F)cc4)c3=O)ccc2n1` [Crystal form D, 2-cyclopropyl-9-[4-(difluoromethoxy)phenyl]-7-(2-methyl-2H-indazol-5-yl)-8H-pyrimido[1,2-b]pyridazin-8-one], the “After heating (crystal form)” value in data set [1] (Heating temperature 150 °C) is listed as “Crystal forms A + H + L”.
Turning to `Cn1cc2cc(-c3nn4ccc(C5CC5)nc4c(-c4ccc(OC(F)F)cc4)c3=O)ccc2n1` [Crystal form H, 2-cyclopropyl-9-[4-(difluoromethoxy)phenyl]-7-(2-methyl-2H-indazol-5-yl)-8H-pyrimido[1,2-b]pyridazin-8-one], the Crystal form change result was “No” in data set [2] (0 day); “No change in crystal form was observed, but the crystallinity decreased” in data set [2] (25 °C/60% RH/17 days); “No” in data set [2] (40 °C/75% RH/17 days). Moreover, the Purity in data set [2] (0 day) amounted to 98.62%; in data set [2] (25 °C/60% RH/17 days), 98.59%; in data set [2] (40 °C/75% RH/17 days), 98.59%. Further, the “change in crystal form or purity” value was “no change in purity, but had a decrease in crystallinity” in data set [2] (25 °C/60% RH for 17 days) and “no change in either crystal form or purity” in data set [2] (40 °C/75% RH for 17 days). In addition, in data set [1] (Heating temperature 250 °C), the “After heating (crystal form)” value is given as “Crystal form A”.
Turning to `Cn1cc2cc(-c3nn4ccc(C5CC5)nc4c(-c4ccc(OC(F)F)cc4)c3=O)ccc2n1` [Crystal form B, 2-cyclopropyl-9-[4-(difluoromethoxy)phenyl]-7-(2-methyl-2H-indazol-5-yl)-8H-pyrimido[1,2-b]pyridazin-8-one], the Crystal form change result in data set [2] (0 day), in data set [2] (25 °C/60% RH/17 days) and in data set [2] (40 °C/75% RH/17 days) was “No” throughout. Besides, the Purity in data set [2] (0 day) is on record as 98.69%; in data set [2] (25 °C/60% RH/17 days), 98.69%; in data set [2] (40 °C/75% RH/17 days), 98.68%. For the same compound, the “change in crystal form or purity” value in data set [2] (25 °C/60% RH for 17 days) and in data set [2] (40 °C/75% RH for 17 days) was “no change in either crystal form or purity” in each case. Besides, the “After heating (crystal form)” value in data set [1] (Heating temperature 250 °C) was “Crystal form A”.
As to `Cn1cc2cc(-c3nn4ccc(C5CC5)nc4c(-c4ccc(OC(F)F)cc4)c3=O)ccc2n1` [Crystal form N, 2-cyclopropyl-9-[4-(difluoromethoxy)phenyl]-7-(2-methyl-2H-indazol-5-yl)-8H-pyrimido[1,2-b]pyridazin-8-one], the “After heating (crystal form)” value in data set [1] (Heating temperature 100 °C) was “Crystal form A”.
